Laboratory results reported in publication PMC11952846, “The sterol-regulating human ARV1 binds cholesterol and phospholipids through its conserved ARV1 homology domain” (The Journal of Biological Chemistry, 2025).
Changes are numbered by the printed parent chain. “Also recorded” adds a separate entry of the source.

Legend:
6XHIS-N98 K54/K59A = biological target: T1, 6XHIS-N98 K54/K59A (Homo sapiens, UniProt Q9H2C2, K54A/K59A); assay: HTRF phospholipid lipid-binding assay, mutant; set-up: key: NC, no change; details: biotinylated lipid; NC = no change vs N98
T1 construct: made in house; host or cells: E. coli BL21
T1 sequence (Q9H2C2 1-98 K54A/K59A): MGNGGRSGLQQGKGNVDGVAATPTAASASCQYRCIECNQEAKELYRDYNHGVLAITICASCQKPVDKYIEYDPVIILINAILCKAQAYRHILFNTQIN
Text: (§1) An HTRF assay was developed for 6XHIS-ARV1-N98-lipid binding. HTRF measures analyte interactions through fluorescence resonance energy transfer technology and time-resolved measurements ([53]). The interaction between two molecules can be quantified through binding each individual molecule involved with a fluorescent label and then analyzing the transfer of energy between the initial donor fluorophore and the secondary acceptor fluorophore. Following excitation of the first fluorophore, transfer of energy can only occur if the molecules bound with the fluorescent tags are within proximity to each other.
(§2) Assays were plated in 384-well flat bottom microplates (Greiner Bio, catalog #784075-25). Proteins were diluted using binding buffer (20 mM Hepes buffer, pH 7.2, containing 0.1% BSA, and 0.01% Tween20) to a stock concentration of 0.75 μM, and biotinylated phospholipids were dispensed, dried under nitrogen gas, and resuspended in binding buffer to a stock concentration of 50 μM. The lipid stock solution was diluted by 1:2 for a series of 12 serial dilutions. For the assay, in sequential order, 6 μl of binding buffer was loaded into the plate in triplicate for each dilution of phospholipid. To this, 2 μl of 0.75 μM 6XHIS-ARV1-N98 was added, followed by 2 μl of biotinylated phospholipid. Immediately following each addition loaded into the plate, the plate was centrifuged for 1 min at 1000 rpm to bring the contents to the bottom of the well. Next, detection antibodies were mixed with detection buffer (20 mM Hepes buffer, pH 8.5, containing 0.01% BSA and 200 mM KF). Antibodies were a MAb anti-6XHIS Europium kryptate-conjugated D1 fluorescent antibody (Cisbio, #61HISKLA) and Streptavidin-conjugated d2 fluorescent antibody (Cisbio, #610SADLA). For each 1000 μl of detection buffer, 5 μl of each antibody was added just prior to loading 10 μl into each well. The plate was again centrifuged for 1 min at 1000 rpm and stored in a sealed container overnight, in the dark. Plates were read on a PerkinElmer EnVision Xcite Multilabel plate reader.
(§3) Curves were logarithmically transformed and normalized to a common scale before being fit with a nonlinear regression of the agonist against the normalized response. This generated half maximal effective concentration values (EC50; M) that could then be compared between different lipids. In the context of our study, EC50 values were defined as a measure of protein sensitivity to binding to a particular lipid within a dose response curve. For phospholipid competition analysis, IC50; M values were determined using nonlinear regression of the inhibitor against normalized response.

6XHIS-N98 D72A = biological target: T2, 6XHIS-N98 D72A (Homo sapiens, UniProt Q9H2C2, D72A); assay: HTRF phospholipid lipid-binding assay, mutant; set-up: key: NC, no change; details: biotinylated lipid; NC = no change vs N98
T2 construct: made in house; host or cells: E. coli BL21
T2 sequence (Q9H2C2 1-98 D72A): T1 sequence (Q9H2C2 1-98 K54A/K59A) with A54K, A59K, D72A
Text: as §1, §2, §3

6XHIS-N98 C58/61A = biological target: T3, 6XHIS-N98 C58/61A (Homo sapiens, UniProt Q9H2C2, C58A/C61A); assay: HTRF phospholipid lipid-binding assay, mutant; set-up: key: NC, no change; details: biotinylated lipid; NC = no change vs N98
T3 construct: made in house; host or cells: E. coli BL21
T3 sequence (Q9H2C2 1-98 C58A/C61A): T1 sequence (Q9H2C2 1-98 K54A/K59A) with A54K, C58A, A59K, C61A
Text: as §1, §2, §3

6XHIS-N98 N94A = biological target: T4, 6XHIS-N98 N94A (Homo sapiens, UniProt Q9H2C2, N94A); assay: HTRF phospholipid lipid-binding assay, mutant; set-up: key: NC, no change; details: biotinylated lipid; NC = no change vs N98
T4 construct: made in house; host or cells: E. coli BL21
T4 sequence (Q9H2C2 1-98 N94A): T1 sequence (Q9H2C2 1-98 K54A/K59A) with A54K, A59K, N94A
Text: as §1, §2, §3

6XHIS-N98 N94Q = biological target: T5, 6XHIS-N98 N94Q (Homo sapiens, UniProt Q9H2C2, N94Q); assay: HTRF phospholipid lipid-binding assay, mutant; set-up: key: NC, no change; details: biotinylated lipid; NC = no change vs N98
T5 construct: made in house; host or cells: E. coli BL21
T5 sequence (Q9H2C2 1-98 N94Q): T1 sequence (Q9H2C2 1-98 K54A/K59A) with A54K, A59K, N94Q
Text: as §1, §2, §3

6XHIS-N98 C34/37A = biological target: T6, 6XHIS-N98 C34/37A (Homo sapiens, UniProt Q9H2C2, C34A/C37A); assay: HTRF phospholipid lipid-binding assay, mutant; set-up: key: NC, no change; details: biotinylated lipid; NC = no change vs N98
T6 construct: made in house; host or cells: E. coli BL21
T6 sequence (Q9H2C2 1-98 C34A/C37A): T1 sequence (Q9H2C2 1-98 K54A/K59A) with C34A, C37A, A54K, A59K
Text: as §1, §2, §3

GST-Annexin A2 = GST-Annexin A2 (Homo sapiens, UniProt P07355); assay: Protein-lipid liposome binding assay (positive control protein); details: protein detected in final pellet
Procedure: Lyophilized lipids were reconstituted in chloroform at 10 mg/ml and stored in glass tubes with Teflon tops at −20 °C until use. One milliliter of 10 mg/ml stock was dried under a stream of nitrogen in a glass tube until a lipid cake/film was formed. The lipid cake was then rehydrated in BLT rehydration buffer (5 mM Tris/HCl, pH 7.4, containing 150 mM NaCl) to a concentration of 1 mg/ml. Lipid suspensions were subjected to three freeze/thaw cycles using a dry ice ethanol/[…] water bath to encapsulate the buffer and improve liposome formation. The suspension and lipid extruder were equilibrated to temperature for 10 min and liposomes were extruded using […] polycarbonate membranes (Avestin). Liposomes were made by mixing stock lipid PL (1 mg/ml) with PC (10 mg/ml).
Liposomes were serial diluted in floatation buffer (100 mM NaCl, 2 mM EDTA, pH 5.5) to a final concentration of 0.1 mg/ml. Nine hundred microliters of liposome solution was placed in clear ultracentrifuge tubes and mixed with 100 μl of 0.01 μg/ml of protein. The liposome/protein solution was incubated at room temperature for 1 h with occasional shaking. An initial 100 μl of liposome/protein solution (liposomes) was removed and the remaining 900 μl was centrifuged at 50,000g for 20 min at 4 °C. The pellet was resuspended in 800 μl of fresh floatation buffer, centrifuged as above, and 800 μl of supernatant was removed (wash 1). This was repeated a second time and again 800 μl of supernatant was removed (wash 2). The final pellet was resuspended in 100 μl of floatation buffer plus SDS treatment buffer (pellet). Thirty microliters of each fraction was run on a 15% SDS-PAGE gel and probed with an anti-GST monoclonal antibody at a 1:1500 dilution.

Sequence of GST-Annexin A2 (P07355 whole entry): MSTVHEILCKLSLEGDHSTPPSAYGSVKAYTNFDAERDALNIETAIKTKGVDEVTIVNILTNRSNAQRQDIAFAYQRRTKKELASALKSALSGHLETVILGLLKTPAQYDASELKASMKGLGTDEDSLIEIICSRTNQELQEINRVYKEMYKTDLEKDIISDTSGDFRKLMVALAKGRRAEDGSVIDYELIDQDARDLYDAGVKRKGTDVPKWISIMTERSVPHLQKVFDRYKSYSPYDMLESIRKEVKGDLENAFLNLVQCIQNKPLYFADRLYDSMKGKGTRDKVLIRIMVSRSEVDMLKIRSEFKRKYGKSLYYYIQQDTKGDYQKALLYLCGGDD

Compound	Bio-PL, EC50, M ± S.D. (6XHIS-N98 K54/K59A)	Bio-PL, EC50, M ± S.D. (6XHIS-N98 D72A)	Bio-PL, EC50, M ± S.D. (6XHIS-N98 C58/61A)	Bio-PL, EC50, M ± S.D. (6XHIS-N98 N94A)	Bio-PL, EC50, M ± S.D. (6XHIS-N98 N94Q)	Bio-PL, EC50, M ± S.D. (6XHIS-N98 C34/37A)	binding to PC:PL liposomes (GST-Annexin A2)
CCCCC/C=C\C/C=C\CCCCCCCC(=O)OC[C@H](COP(=O)(O)OCC(O)COP(=O)(O)OC[C@@H](COC(=O)CCCCCCC/C=C\C/C=C\CCCCC)OC(=O)CCCCCCC/C=C\C/C=C\CCCCC)OC(=O)CCCCCCC/C=C\C/C=C\CCCCC (stereo partly shown) [CL, cardiolipin]	NC	NC	NC	NC	NC	NC	bound
CCCCCCCCCCCCCCCC(=O)OC[C@H](COP(=O)(O)O)OC(=O)CCCCCCCCCCCCCCC [PA, phosphatidic acid]	reduced binding	reduced binding	reduced binding	reduced binding	reduced binding	increased	bound
CCCCCCCC/C=C\CCCCCCCC(=O)OC[C@H](COP(=O)(O)OCC(O)CO)OC(=O)CCCCCCC/C=C\CCCCCCCC (stereo partly shown) [PG, phosphatidylglycerol]	reduced	NC	NC	reduced	NC	reduced	bound
CCCCCCCCCCCCCCCCCC(=O)OC[C@H](COP(=O)(O)OC[C@H](N)C(=O)O)OC(=O)CCCCCCCCCCCCCCCCC [PS, phosphatidylserine]	NC	NC	NC	NC	NC	NC	bound
CCCCCC(=O)O[C@H](COC(=O)CCCCCNC(=O)CCCC[C@@H]1SC[C@@H]2NC(=O)N[C@@H]21)COP(=O)(O)O[C@H]1[C@H](O)[C@@H](O)[C@H](OP(=O)(O)O)[C@@H](O)[C@H]1O [reference compound]		weakened	weakened	weakened; also recorded: reduction	weakened		
phosphatidylcholine [PC]	NC	NC	NC	NC	NC	NC	very weakly
phosphatidylethanolamine [PE]	NC	NC	NC	NC	NC	NC	Neither
